From the NIST ThermoML archive (doi:10.1016/j.jct.2008.09.002)

Legend:
[1] = xn = mol fraction of the nth substance listed; conditions: 101.3 kPa, Liquid, Vibrating tube method
[2] = molar heat capacity at constant pressure; xn = mol fraction of the nth substance listed; conditions: 101.3 kPa, Liquid, Small sample (50 mg) DSC

C[N+](=O)[O-] [nitromethane] + CCCCn1cc[n+](C)c1.F[B-](F)(F)F
Conditions	mass density [kg/m3]	molar heat capacity at constant pressure [J/K/mol]
[1], 293.15 K, x2 = 0.1007	1167	–
[1], 293.15 K, x2 = 0.2066	1181.1	–
[1], 293.15 K, x2 = 0.2597	1185.9	–
[1], 293.15 K, x2 = 0.3069	1189.3	–
[1], 293.15 K, x2 = 0.3957	1194.4	–
[1], 293.15 K, x2 = 0.41	1195	–
[1], 293.15 K, x2 = 0.4866	1198.1	–
[1], 293.15 K, x2 = 0.5058	1198.7	–
[1], 293.15 K, x2 = 0.6016	1201.5	–
[1], 293.15 K, x2 = 0.6455	1202.6	–
[1], 293.15 K, x2 = 0.6837	1203.4	–
[1], 293.15 K, x2 = 0.7793	1205.1	–
[1], 293.15 K, x2 = 0.8867	1206.5	–
[1], 298.15 K, x2 = 0.1007	1161.3	–
[1], 298.15 K, x2 = 0.2066	1176.1	–
[1], 298.15 K, x2 = 0.2597	1181.1	–
[1], 298.15 K, x2 = 0.3069	1184.7	–
[1], 298.15 K, x2 = 0.3957	1190	–
[1], 298.15 K, x2 = 0.41	1190.6	–
[1], 298.15 K, x2 = 0.4866	1193.9	–
[1], 298.15 K, x2 = 0.5058	1194.6	–
[1], 298.15 K, x2 = 0.6016	1197.5	–
[1], 298.15 K, x2 = 0.6455	1198.6	–
[1], 298.15 K, x2 = 0.6837	1199.5	–
[1], 298.15 K, x2 = 0.7793	1201.3	–
[1], 298.15 K, x2 = 0.8867	1202.9	–
[1], 303.15 K, x2 = 0.1007	1155.7	–
[1], 303.15 K, x2 = 0.2066	1171.1	–
[1], 303.15 K, x2 = 0.2597	1176.4	–
[1], 303.15 K, x2 = 0.3069	1180.1	–
[1], 303.15 K, x2 = 0.3957	1185.6	–
[1], 303.15 K, x2 = 0.41	1186.3	–
[1], 303.15 K, x2 = 0.4866	1189.7	–
[1], 303.15 K, x2 = 0.5058	1190.4	–
[1], 303.15 K, x2 = 0.6016	1193.5	–
[1], 303.15 K, x2 = 0.6455	1194.7	–
[1], 303.15 K, x2 = 0.6837	1195.6	–
[1], 303.15 K, x2 = 0.7793	1197.5	–
[1], 303.15 K, x2 = 0.8867	1199.2	–
[1], 308.15 K, x2 = 0.1007	1150	–
[1], 308.15 K, x2 = 0.2066	1166	–
[1], 308.15 K, x2 = 0.2597	1171.5	–
[1], 308.15 K, x2 = 0.3069	1175.4	–
[1], 308.15 K, x2 = 0.3957	1181.2	–
[1], 308.15 K, x2 = 0.41	1181.9	–
[1], 308.15 K, x2 = 0.4866	1185.5	–
[1], 308.15 K, x2 = 0.5058	1186.3	–
[1], 308.15 K, x2 = 0.6016	1189.5	–
[1], 308.15 K, x2 = 0.6455	1190.8	–
[1], 308.15 K, x2 = 0.6837	1191.7	–
[1], 308.15 K, x2 = 0.7793	1193.7	–
[1], 308.15 K, x2 = 0.8867	1195.6	–
[1], 313.15 K, x2 = 0.1007	1144.4	–
[1], 313.15 K, x2 = 0.2066	1161.1	–
[1], 313.15 K, x2 = 0.2597	1166.8	–
[1], 313.15 K, x2 = 0.3069	1170.9	–
[1], 313.15 K, x2 = 0.3957	1176.9	–
[1], 313.15 K, x2 = 0.41	1177.6	–
[1], 313.15 K, x2 = 0.4866	1181.4	–
[1], 313.15 K, x2 = 0.5058	1182.2	–
[1], 313.15 K, x2 = 0.6016	1185.5	–
[1], 313.15 K, x2 = 0.6455	1186.9	–
[1], 313.15 K, x2 = 0.6837	1187.9	–
[1], 313.15 K, x2 = 0.7793	1190	–
[1], 313.15 K, x2 = 0.8867	1191.9	–
[1], 318.15 K, x2 = 0.1007	1138.7	–
[1], 318.15 K, x2 = 0.2066	1156.1	–
[1], 318.15 K, x2 = 0.2597	1162.1	–
[1], 318.15 K, x2 = 0.3069	1166.3	–
[1], 318.15 K, x2 = 0.3957	1172.5	–
[1], 318.15 K, x2 = 0.41	1173.3	–
[1], 318.15 K, x2 = 0.4866	1177.2	–
[1], 318.15 K, x2 = 0.5058	1178	–
[1], 318.15 K, x2 = 0.6016	1181.6	–
[1], 318.15 K, x2 = 0.6455	1183	–
[1], 318.15 K, x2 = 0.6837	1184	–
[1], 318.15 K, x2 = 0.7793	1186.3	–
[1], 318.15 K, x2 = 0.8867	1188.3	–
[2], 293.15 K, x2 = 0.0525	–	119.2
[2], 293.15 K, x2 = 0.1029	–	131.6
[2], 293.15 K, x2 = 0.1943	–	154.9
[2], 293.15 K, x2 = 0.2941	–	180.5
[2], 293.15 K, x2 = 0.3911	–	205.4
[2], 293.15 K, x2 = 0.5609	–	248.8
[2], 293.15 K, x2 = 0.7062	–	285.8
[2], 293.15 K, x2 = 0.7578	–	299
[2], 293.15 K, x2 = 0.897	–	334.5
[2], 293.15 K, x2 = 0.9436	–	346.4
[2], 293.15 K, x2 = 0.9716	–	353.6
[2], 298.15 K, x2 = 0.0525	–	119.6
[2], 298.15 K, x2 = 0.1029	–	132.1
[2], 298.15 K, x2 = 0.1943	–	155.6
[2], 298.15 K, x2 = 0.2941	–	181.5
[2], 298.15 K, x2 = 0.3911	–	206.7
[2], 298.15 K, x2 = 0.5609	–	250.6
[2], 298.15 K, x2 = 0.7062	–	288.1
[2], 298.15 K, x2 = 0.7578	–	301.4
[2], 298.15 K, x2 = 0.897	–	337.4
[2], 298.15 K, x2 = 0.9436	–	349.5
[2], 298.15 K, x2 = 0.9716	–	356.7
[2], 303.15 K, x2 = 0.0525	–	120
[2], 303.15 K, x2 = 0.1029	–	132.7
[2], 303.15 K, x2 = 0.1943	–	156.4
[2], 303.15 K, x2 = 0.2941	–	182.5
[2], 303.15 K, x2 = 0.3911	–	208
[2], 303.15 K, x2 = 0.5609	–	252.3
[2], 303.15 K, x2 = 0.7062	–	290.2
[2], 303.15 K, x2 = 0.7578	–	303.7
[2], 303.15 K, x2 = 0.897	–	340
[2], 303.15 K, x2 = 0.9436	–	352.3
[2], 303.15 K, x2 = 0.9716	–	359.5
[2], 308.15 K, x2 = 0.0525	–	120.5
[2], 308.15 K, x2 = 0.1029	–	133.3
[2], 308.15 K, x2 = 0.1943	–	157.1
[2], 308.15 K, x2 = 0.2941	–	183.3
[2], 308.15 K, x2 = 0.3911	–	209.1
[2], 308.15 K, x2 = 0.5609	–	253.8
[2], 308.15 K, x2 = 0.7062	–	292.1
[2], 308.15 K, x2 = 0.7578	–	305.6
[2], 308.15 K, x2 = 0.897	–	342.3
[2], 308.15 K, x2 = 0.9436	–	354.7
[2], 308.15 K, x2 = 0.9716	–	362
[2], 313.15 K, x2 = 0.0525	–	121
[2], 313.15 K, x2 = 0.1029	–	133.9
[2], 313.15 K, x2 = 0.1943	–	157.8
[2], 313.15 K, x2 = 0.2941	–	184.1
[2], 313.15 K, x2 = 0.3911	–	210.1
[2], 313.15 K, x2 = 0.5609	–	255.1
[2], 313.15 K, x2 = 0.7062	–	293.7
[2], 313.15 K, x2 = 0.7578	–	307.3
[2], 313.15 K, x2 = 0.897	–	344.2
[2], 313.15 K, x2 = 0.9436	–	356.8
[2], 313.15 K, x2 = 0.9716	–	364.1
[2], 318.15 K, x2 = 0.0525	–	121.4
[2], 318.15 K, x2 = 0.1029	–	134.3
[2], 318.15 K, x2 = 0.1943	–	158.3
[2], 318.15 K, x2 = 0.2941	–	184.7
[2], 318.15 K, x2 = 0.3911	–	210.9
[2], 318.15 K, x2 = 0.5609	–	256.2
[2], 318.15 K, x2 = 0.7062	–	295.1
[2], 318.15 K, x2 = 0.7578	–	308.7
[2], 318.15 K, x2 = 0.897	–	345.9
[2], 318.15 K, x2 = 0.9436	–	358.5
[2], 318.15 K, x2 = 0.9716	–	365.8
